According to PubChem BioAssay (NCI):
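Tested at 5 concentrations; 48 h exposure; 96-well plates; endpoints linearly interpolated, else capped at highest concentration. Abbreviation: GI50, concentration required for 50% inhibition of growth. TGI is the concentration that stops growth completely.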

Columns and labels:
Test in all cases: NCI anticancer screen, dose series, 48 h
[1] = test system: DU-145 prostate
[2] = test system: ACHN renal
[3] = test system: M14 melanoma
[4] = test system: OVCAR-5 ovarian
[5] = test system: KM12 colon
[6] = test system: HCT-15 colon
[7] = test system: OVCAR-8 ovarian
[8] = test system: SF-539 CNS
[9] = test system: EKVX NSCLC
[10] = test system: NCI/ADR-RES ovarian
[11] = test system: SK-MEL-2 melanoma
[12] = test system: PC-3 prostate
[13] = test system: MCF7 breast
[14] = test system: CAKI-1 renal
[15] = test system: NCI-H23 lung
[16] = test system: IGROV1 ovarian
[17] = test system: UACC-257 melanoma
[18] = test system: SNB-19 CNS
[19] = test system: HCT-116 colon
[20] = test system: 786-0 renal
[21] = test system: A549 NSCLC
[22] = test system: COLO 205 colon
[23] = test system: MDA-MB-231 breast
[24] = test system: SN12C renal
[25] = test system: SW-620 colon
[26] = test system: MALME-3M melanoma
[27] = test system: NCI-H522 lung
[28] = test system: LOX IMVI melanoma
[29] = test system: A498 renal
[30] = test system: K-562 leukemia
[31] = test system: RXF 393 renal
[32] = test system: OVCAR-4 ovarian
[33] = test system: NCI-H226 lung
[34] = test system: UACC-62 melanoma
[35] = test system: HL-60(TB) leukemia
[36] = test system: HOP-62 NSCLC
[37] = test system: HOP-92 NSCLC
[38] = test system: CCRF-CEM leukemia
[39] = test system: NCI-H460 lung
[40] = test system: SR leukemia
[41] = test system: RPMI-8226 leukemia
[42] = test system: HS 578T breast
[43] = test system: SF-268 CNS
[44] = test system: SNB-75 CNS
[45] = test system: SK-MEL-5 melanoma
[46] = test system: MDA-MB-435
[47] = test system: BT-549 breast
[48] = test system: U251 CNS
[49] = test system: HT29 colon
[50] = test system: SK-OV-3 ovarian
[51] = test system: SK-MEL-28 melanoma
[52] = test system: SF-295 CNS
[53] = test system: OVCAR-3 ovarian
[54] = test system: TK-10 renal

Question: For `O=S(=O)(Nc1ccc(-c2nc(-c3cccc(O)c3)c(-c3ccnc(Br)c3)[nH]2)cc1)c1ccccc1`, which GI50 [1] is on record?
Answer: 3.24 µM

Question: And the TGI [1]?
Answer: 10.9 µM

Question: And the GI50 [2]?
Answer: 2.55 µM

Question: What about the TGI [2] of the same molecule?
Answer: 6.96 µM

Question: And the GI50 [3]?
Answer: 2.5 µM

Question: And the TGI [3]?
Answer: 8.55 µM

Question: What about the GI50 [4] of the same molecule?
Answer: 4.34 µM

Question: What about the TGI [4] of the same molecule?
Answer: 22.7 µM

Question: What about the GI50 [5] of the same molecule?
Answer: 2.32 µM

Question: And the TGI [5]?
Answer: 5.99 µM

Question: And the GI50 [6]?
Answer: 1.97 µM

Question: And the TGI [6]?
Answer: 4.76 µM

Question: What about the GI50 [7] of the same molecule?
Answer: 2.84 µM

Question: What about the TGI [7] of the same molecule?
Answer: 9.74 µM

Question: And the GI50 [8]?
Answer: 2.01 µM

Question: And the TGI [8]?
Answer: 4.75 µM

Question: And the GI50 [9]?
Answer: 2.55 µM

Question: And the TGI [9]?
Answer: 8.09 µM

Question: What about the GI50 [10] of the same molecule?
Answer: 3.04 µM

Question: What about the TGI [10] of the same molecule?
Answer: 32 µM

Question: What about the GI50 [11] of the same molecule?
Answer: 2.41 µM

Question: What about the TGI [11] of the same molecule?
Answer: 6.21 µM

Question: What about the GI50 [12] of the same molecule?
Answer: 2.12 µM

Question: What about the TGI [12] of the same molecule?
Answer: 6.82 µM

Question: And the GI50 [13]?
Answer: 2.3 µM

Question: What about the TGI [13] of the same molecule?
Answer: 7.3 µM

Question: What about the GI50 [14] of the same molecule?
Answer: 2.15 µM

Question: And the TGI [14]?
Answer: 7.51 µM

Question: And the GI50 [15]?
Answer: 2.18 µM

Question: What about the TGI [15] of the same molecule?
Answer: 6.11 µM

Question: What about the GI50 [16] of the same molecule?
Answer: 2.88 µM

Question: What about the TGI [16] of the same molecule?
Answer: 11.3 µM

Question: And the GI50 [17]?
Answer: 2.53 µM

Question: What about the TGI [17] of the same molecule?
Answer: 7.15 µM

Question: What about the GI50 [18] of the same molecule?
Answer: 3.32 µM

Question: What about the TGI [18] of the same molecule?
Answer: 15.5 µM

Question: What about the GI50 [19] of the same molecule?
Answer: 2.43 µM

Question: What about the TGI [19] of the same molecule?
Answer: 7.16 µM

Question: What about the GI50 [20] of the same molecule?
Answer: 2.51 µM

Question: What about the TGI [20] of the same molecule?
Answer: 7.48 µM

Question: And the GI50 [21]?
Answer: 3 µM

Question: What about the TGI [21] of the same molecule?
Answer: 33.1 µM

Question: And the GI50 [22]?
Answer: 2.42 µM

Question: And the TGI [22]?
Answer: 6.81 µM

Question: And the GI50 [23]?
Answer: 2.71 µM

Question: What about the TGI [23] of the same molecule?
Answer: 11.7 µM

Question: And the GI50 [24]?
Answer: 2.91 µM

Question: What about the TGI [24] of the same molecule?
Answer: 13.2 µM

Question: What about the GI50 [25] of the same molecule?
Answer: 2.84 µM

Question: And the TGI [25]?
Answer: 10.6 µM

Question: And the GI50 [26]?
Answer: 2.1 µM

Question: And the TGI [26]?
Answer: 6.89 µM

Question: And the GI50 [27]?
Answer: 2.48 µM

Question: And the TGI [27]?
Answer: 9.95 µM

Question: And the GI50 [28]?
Answer: 1.74 µM

Question: And the TGI [28]?
Answer: 3.29 µM

Question: What about the GI50 [29] of the same molecule?
Answer: 0.364 µM

Question: What about the TGI [29] of the same molecule?
Answer: 3.67 µM

Question: And the GI50 [30]?
Answer: 2.27 µM

Question: And the TGI [30]?
Answer: > 100 µM

Question: What about the GI50 [31] of the same molecule?
Answer: 1.93 µM

Question: And the TGI [31]?
Answer: 4.36 µM

Question: And the GI50 [32]?
Answer: 3.09 µM

Question: What about the TGI [32] of the same molecule?
Answer: 15.1 µM

Question: What about the GI50 [33] of the same molecule?
Answer: 2.25 µM

Question: What about the TGI [33] of the same molecule?
Answer: 7.27 µM

Question: What about the GI50 [34] of the same molecule?
Answer: 1.91 µM

Question: What about the TGI [34] of the same molecule?
Answer: 4.97 µM

Question: And the GI50 [35]?
Answer: 2.44 µM

Question: What about the TGI [35] of the same molecule?
Answer: 6.46 µM

Question: And the GI50 [36]?
Answer: 2.42 µM

Question: What about the TGI [36] of the same molecule?
Answer: 6.43 µM

Question: And the GI50 [37]?
Answer: 1.69 µM

Question: What about the TGI [37] of the same molecule?
Answer: 4.9 µM

Question: And the GI50 [38]?
Answer: 1.91 µM

Question: And the TGI [38]?
Answer: > 100 µM

Question: What about the GI50 [39] of the same molecule?
Answer: 2.14 µM

Question: And the TGI [39]?
Answer: 4.71 µM

Question: What about the GI50 [40] of the same molecule?
Answer: 2.29 µM

Question: And the TGI [40]?
Answer: > 100 µM

Question: And the GI50 [41]?
Answer: 2.35 µM

Question: And the TGI [41]?
Answer: 6.63 µM

Question: What about the GI50 [42] of the same molecule?
Answer: 1.5 µM

Question: And the TGI [42]?
Answer: 4.39 µM

Question: And the GI50 [43]?
Answer: 3.18 µM

Question: And the TGI [43]?
Answer: 13.7 µM

Question: What about the GI50 [44] of the same molecule?
Answer: 1.3 µM

Question: And the TGI [44]?
Answer: 7.18 µM

Question: And the GI50 [45]?
Answer: 2.4 µM

Question: And the TGI [45]?
Answer: 5.82 µM

Question: What about the GI50 [46] of the same molecule?
Answer: 2.2 µM

Question: What about the TGI [46] of the same molecule?
Answer: 6.54 µM

Question: And the GI50 [47]?
Answer: 2.49 µM

Question: And the TGI [47]?
Answer: 6.76 µM

Question: And the GI50 [48]?
Answer: 2.71 µM

Question: What about the TGI [48] of the same molecule?
Answer: 10.8 µM

Question: And the GI50 [49]?
Answer: 3.17 µM

Question: What about the TGI [49] of the same molecule?
Answer: 18.3 µM

Question: And the GI50 [50]?
Answer: 2.76 µM

Question: And the TGI [50]?
Answer: 7.34 µM

Question: And the GI50 [51]?
Answer: 2.86 µM

Question: And the TGI [51]?
Answer: 9.36 µM

Question: What about the GI50 [52] of the same molecule?
Answer: 1.9 µM

Question: What about the TGI [52] of the same molecule?
Answer: 4.25 µM

Question: And the GI50 [53]?
Answer: 2.07 µM

Question: What about the TGI [53] of the same molecule?
Answer: 4.82 µM

Question: What about the GI50 [54] of the same molecule?
Answer: 3.04 µM

Question: What about the TGI [54] of the same molecule?
Answer: 9.95 µM
